Assay results as given in patent US20230172206A1 (BASF SE, priority 2020, published 2023).

What was measured:
[1] = tested on: Phakopsora pachyrhizi (F129L); assay: Protective control of soybean rust on soybeans (PHAKPA P6); format: in vivo; details: soybean rust F129L isolate; for % PHAKPA (F129L) Disease level P6 at 4 ppm: protective P6, 4 ppm; for % PHAKPA (F129L) Disease level P6 at 16 ppm: protective P6, 16 ppm
[2] = tested on: Phakopsora pachyrhizi (F129L); assay: Protective control of soybean rust on soybeans (PHAKPA P2); format: in vivo; details: soybean rust F129L isolate; for % PHAKPA (F129L) Disease level P2 at 4 ppm: protective P2, 4 ppm; for % PHAKPA (F129L) Disease level P2 at 16 ppm: protective P2, 16 ppm

Compound	% PHAKPA (F129L) Disease level P6 at 4 ppm [1] [%]	% PHAKPA (F129L) Disease level P6 at 16 ppm [1] [%]	% PHAKPA (F129L) Disease level P2 at 4 ppm [2] [%]	% PHAKPA (F129L) Disease level P2 at 16 ppm [2] [%]
CO/N=C(/C(=O)OC)c1cccc(C)c1CO/N=C(\C)c1cc(F)ccc1C(F)(F)F [compound 249]	90	43	87	37
CO/N=C(/C(=O)OC)c1cccc(C)c1CO/N=C(\CC(F)(F)F)c1cccc(C(F)(F)F)c1 [compound 250]	90	80	90	90
CO/N=C(/C(=O)OC)c1cccc(C)c1CO/N=C(\C)c1cc(Cl)ccc1C(F)(F)F [compound 251]	80	80	80	80
CNC(=O)/C(=N/OC)c1cccc(C)c1CO/N=C(\C)c1ccccc1OC(F)F [compound 252]	87	32	50	3
CO/N=C(/C(=O)OC)c1cccc(C)c1CO/N=C(\C)c1ccccc1OC(F)F [compound 253]	100	57	100	87
CO/N=C(/C(=O)OC)c1cccc(C)c1CO/N=C(\C)c1cc(F)ccc1Br [compound 254]	100	100	100	77
CNC(=O)/C(=N/OC)c1cccc(C)c1CO/N=C(\CC(F)(F)F)c1cc(Cl)cc(Cl)c1 [compound 255]	100	87	97	83
CO/N=C(/C(=O)OC)c1cccc(C)c1CO/N=C(\C)c1ccc(F)cc1Cl [compound 256]	70	20	50	18
CO/N=C(/C(=O)OC)c1cccc(C)c1CO/N=C(\C)c1ccc(Br)cc1C(F)(F)F [compound 257]	100	57	93	35
CNC(=O)/C(=N/OC)c1cccc(C)c1CO/N=C(\C)c1ccc(Br)cc1C(F)(F)F [compound 258]	73	8	32	7
CO/N=C(/C(=O)OC)c1cccc(C)c1CO/N=C(\C)c1ccc(OC(F)(F)F)cc1C [compound 259]	93	40	80	17
CNC(=O)/C(=N/OC)c1cccc(C)c1CO/N=C(\C)c1ccc(F)cc1C(F)(F)F [compound 260]	22	0	22	0
CNC(=O)/C(=N/OC)c1cccc(C)c1CO/N=C(\C)c1ccc(OC(F)(F)F)cc1C [compound 261]	87	32	70	9
CNC(=O)/C(=N/OC)c1cccc(C)c1CO/N=C(\C)c1ccc(F)cc1Cl [compound 262]	47	4	63	1
CO/N=C(/C(=O)OC)c1cccc(C)c1CO/N=C(\C)c1ccc(F)cc1C(F)(F)F [compound 263]	73	22	80	15
CO/N=C(/C(=O)OC)c1cccc(C)c1CO/N=C(\C)c1ccc(F)cc1F [compound 266]	90	43	67	18
CNC(=O)/C(=N/OC)c1cccc(C)c1CO/N=C(\C)c1ccc(F)cc1F [compound 267]	10	4	2	0
CO/N=C(/C(=O)OC)c1cccc(C)c1CO/N=C(\C)c1ccc(OC(F)(F)F)cc1Cl [compound 268]	60	17	63	6
CO/N=C(/C(=O)OC)c1cccc(C)c1CO/N=C(\C)c1ccc(OC(F)(F)F)cc1F [compound 269]	18	0	5	0

Compound	% PHAKPA (F129L) Disease level P6 at 4 ppm [1] [%]	% PHAKPA (F129L) Disease level P6 at 16 ppm [1] [%]	% PHAKPA (F129L) Disease level P2 at 4 ppm [2] [%]	% PHAKPA (F129L) Disease level P2 at 16 ppm [2] [%]
CNC(=O)/C(=N/OC)c1cccc(C)c1CO/N=C(\C)c1ccc(OC(F)(F)F)cc1F [compound 270]	0	1	3	0
CNC(=O)/C(=N/OC)c1cccc(C)c1CO/N=C(\C)c1ccccc1COC [compound 277]	100	100	100	60
CNC(=O)/C(=N/OC)c1cccc(C)c1CO/N=C(\C)c1cc(C)ccc1C [compound 278]	90	93	90	60
CNC(=O)/C(=N/OC)c1cccc(C)c1CO/N=C(\C)c1cccc(N2CC(F)(F)C2)c1 [compound 282]	–	18	–	15
CO/N=C(/C(=O)OC)c1cccc(C)c1CO/N=C(\C)c1c(F)cccc1Cl [compound 283]	87	22	83	30
CNC(=O)/C(=N/OC)c1cccc(C)c1CO/N=C(\C)c1c(F)cccc1Cl [compound 284]	62	34	63	44
CO/N=C(/C(=O)OC)c1cccc(C)c1CO/N=C(\C)c1c(C)cccc1F [compound 285]	90	35	87	50
C#Cc1cc(F)ccc1/C(C)=N/OCc1c(C)cccc1/C(=N\OC)C(=O)NC [compound 286]	97	27	67	15
CNC(=O)/C(=N/OC)c1cccc(C)c1CO/N=C(\C)c1ccccc1C1CC1(F)F (centres unmarked) [compound 288]	97	20	87	30
CNC(=O)/C(=N/OC)c1cccc(C)c1CO/N=C(\C)c1c(Cl)cccc1C(F)(F)F [compound 290]	83	21	92	14
CC/C(=N\OCc1c(C)cccc1/C(=N\OC)C(=O)NC)c1ccccc1 [compound 294]	2	0	1	1
CNC(=O)/C(=N/OC)c1cccc(C)c1CO/N=C(\COC)c1ccccc1 [compound 295]	11	0	2	0
CNC(=O)/C(=N/OC)c1cccc(C)c1CO/N=C(\C)c1ccccc1C1(C)CC1 [compound 296]	100	83	100	40
CO/N=C(/C(=O)OC)c1cccc(C)c1CO/N=C(\C)c1cccc(C2CC2)c1 [compound 297]	87	37	90	37
CNC(=O)/C(=N/OC)c1cccc(C)c1CO/N=C(\C)c1ccccc1C(F)F [compound 298]	97	37	63	7
CNC(=O)/C(=N/OC)c1cccc(C)c1CO/N=C(\C)c1cccc(C2CC2)c1 [compound 299]	53	22	53	13
CO/N=C(/C(=O)OC)c1cccc(C)c1CO/N=C(\C)c1cccc(C(C)(F)F)c1 [compound 302]	47	3	47	4
CNC(=O)/C(=N/OC)c1cccc(C)c1CO/N=C(\C)c1cccc(C(C)(F)F)c1 [compound 303]	12	0	2	0
